Consider six molecules from article PMC9820082, “Synthesis of 9-Hydroxy-1H-Benzo[f]chromene Derivatives with Effective Cytotoxic Activity on MCF7/ADR, P-Glycoprotein Inhibitors, Cell Cycle Arrest and Apoptosis Effects” (International Journal of Molecular Sciences, 2022).

The subject of assay [1] is SKOV-3 (ovarian cancer cell line). The assay can be described thus: MTT colorimetric cytotoxicity assay, SKOV-3. To be noted: 24 h incubation, mean ± standard error. It is filed as cell-based, human. The protocol:
(§1) Three human cancer cell lines, PC-3 (human prostate adenocarcinoma, metastatic), […], were used to test the anti-proliferative activity of β-enaminonitrile (4a–p) using the MTT colorimetric assay at concentrations ranging from 0–100 μM. The representative active cytotoxic substances 4a, 4c, 4d, 4e, 4g, 4i, 4k and 4o were also tested against two normal cell lines, human fetal lung (HFL-1) and human diploid fibroblasts (WI-38), as well as Adriamycin (ADR)-resistant human breast cancer cells (MCF-7/ADR). The reference cytotoxic agents, Vinblastine and Doxorubicin, were used in the tests.
(§2) The cytotoxic activity was appraised using the 3-(4,5-dimethylthiazol-2-yl)-2,5-diphenyltetrazolium bromide (MTT) colorimetric assay for the antitumor cell lines, as reported previously, and the ELISA assay for MCF-7/ADR [69].
(In general: Formazan colour is commonly taken as a measure of viable cells.)

The test system of a further assay is human fetal lung (HFL-1). In words: Cytotoxicity against normal cell line HFL-1. It counts as cell-based. To be noted: 24 h incubation, mean ± standard error. The protocol:
as §1
The tumor cell lines MCF-7, HepG-2, PC-3 MCF-7/ADR, HFL-1 and (WI-38) were obtained from the American Type Culture Collection (ATCC, Rockville, MD, USA). The cells were grown on RPMI-1640 medium supplemented with 10% inactivated fetal calf serum and 50 µg/mL gentamycin. The cells were maintained at 37 ^οC in a humidified atmosphere with 5% CO2 and were subcultured two to three times a week.
as §2

Another assay relates to MCF-7/ADR cells. In words: Cell cycle analysis by flow cytometry (PI staining). It is filed as cell-based, human. To be noted: IC50 values, 24 h. The source says: Cancer cells undergo unscheduled cell divisions by the down-regulation of the four cell cycle stages (G1, S, G2 and M); therefore, the development of anticancer agents targeting cell cycle arrest represents an important therapeutic intervention. P-gp breast cancer resistance proteins (BCRP) inhibit the action of anticancer drugs on cell cycle arrest by preventing intercellular drug accumulation. By using flow cytometry and the FACS Calibers, it was possible to examine how the potent-produced compounds (4a, 4c, 4e, 4g and 4i) affected the regulation of cell cycle progression in MCF-7/ADR cells (Becton Dickinson). […] The outcomes of the cell cycle progression give three different results showing compounds with cell cyclic arrest at the G1 phase (4d and 4e), while there were other compounds at the S phase (4a and 4c) and a final compound with cell cycle arrest at both of the G1/S phases (4g and 4i). […] According to the cell cycle analysis, the tested derivatives considerably stopped the MCF-7/ADR cancer cells in the G1/S phase.
Figure 6 Effects of compounds 4a, 4c–4e, 4g and 4i on the cell cycle phases of MCF-7/ADR cells. […] Their DNA content was analyzed using fluorescence flow cytometry. […] The data are expressed as the mean ± SD of three independent experiments in triplicate. Significances are shown in comparison to control cells (* p < 0.001). TEXT PRINTED IN THE PICTURE: (a) DOX.: %DIP G1 63.03% (MCF7/ADR); %DIP G2/M 13.09% (MCF7/ADR); %DIP S 23.88% (MCF7/ADR) | (a) 4a: %DIP G1 41.63% (MCF7/ADR); %DIP G2/M 5.55% (MCF7/ADR); %DIP S 52.82% (MCF7/ADR) | (a) 4c: %DIP G1 52.13% (MCF7/ADR); %DIP G2/M 9.91% (MCF7/ADR); %DIP S 37.96% (MCF7/ADR) | (a) 4d: %DIP G1 59.42% (MCF7/ADR); %DIP G2/M 13.75% (MCF7/ADR); %DIP S 26.83% (MCF7/ADR) | (a) 4e: %DIP G1 67.32% (MCF7/ADR); %DIP G2/M 8.6% (MCF7/ADR); %DIP S 24.08% (MCF7/ADR) | (a) 4g: %DIP G1 59.37% (MCF7/ADR); %DIP G2/M 3.67% (MCF7/ADR); %DIP S 36.96% (MCF7/ADR) | (a) 4i: %DIP G1 5.68% (MCF7/ADR); %DIP G2/M 57.61% (MCF7/ADR); %DIP S 36.71% (MCF7/ADR) DOUBTS OF THE COPYIST ABOUT THIS PICTURE: The print in the histogram insets of panel (a) is very small and blurred; 3, 5, 6, 8 and 9 cannot be told apart with certainty in any value, so all values below are best readings. / DOX., %DIP G1 63.03%: 3s may be 8s / DOX., %DIP G2/M 13.09%: 9 may be 8; 3 may be 5 / DOX., %DIP S 23.88%: 8s may be 3 or 6 / 4a, %DIP G1 41.63%: 6 or 8; 3 or 8 / 4a, %DIP G2/M 5.55%: 5s may be 6 or 3 / 4a, %DIP S 52.82%: 8 may be 3 or 6 / 4c, %DIP G1 52.13%: 3 or 8 / 4c, %DIP G2/M 9.91%: 9s may be 8 / 4c, %DIP S 37.96%: 9 or 8; 6 or 8 / 4d, %DIP G1 59.42%: 9 or 8 / 4d, %DIP G2/M 13.75%: 3 or 8; 5 or 6 / 4d, %DIP S 26.83%: 6, 8 and 3 uncertain / 4e, %DIP G1 67.32%: 6 or 8; 3 or 8 / 4e, %DIP G2/M 8.6%: 8 and 6 uncertain; a further digit may be missing / 4e, %DIP S 24.08%: 8 may be 3 or 6 / 4g, %DIP G1 59.37%: 9 or 8; 3 or 8 / 4g, %DIP G2/M 3.67%: 3 or 8; 6 or 8 / 4g, %DIP S 36.96%: 3, 6 and 9 uncertain / 4i, %DIP G1 5.68%: 5, 6 and 8 uncertain; the value seems to be printed against G1 although a leading digit could be hidden / 4i, %DIP G2/M 57.61%: 5 or 6; 6 or 8 / 4i, %DIP S 36.71%: 3 or 8; 6 or 8 / The untreated control (Cont.) also carries printed percentages (%DIP G1 55.38%, %DIP G2/M 15.01%, %DIP S 29.61%) but was left out because it is not a substance.
(In general: A flow cytometer gives signals particle by particle.)

Assay [2] deals with HeLa (cervical cancer cell line). In words: MTT colorimetric cytotoxicity assay, HeLa. Particulars: Homo sapiens, HeLa, 24 h, 24 h incubation, mean ± standard error. It counts as cell-based, human. As for the experimental part: as §1, §2

For orientation: IC50 means the concentration that inhibits the measured activity by half. For the molecule `N#CC1=C(N)Oc2ccc3ccc(O)cc3c2C1c1ccc(Cl)c(Cl)c1` (centres unmarked) [4g, 3-Amino-1-(3,4-Dichlorophenyl)-9-Hydroxy-1H-Benzo[f]chromene-2-Carbonitrile], the IC50 is 0.9 ± 0.3 µM in assay [1] (Homo sapiens, SK-OV-3, 24 h); 27.4 ± 0.1 µM in the assay on human fetal lung (HFL-1) (Homo sapiens, HFL1, 24 h); 2.2 ± 0.2 µM in assay [2]. The “cell cycle arrest phase” value in the assay with MCF-7/ADR cells is “G1/S phases”.
Regarding `N#CC1=C(N)Oc2ccc3ccc(O)cc3c2C1c1ccc(Cl)cc1Cl` (centres unmarked) [4d, 3-Amino-1-(2,4-Dichlorophenyl)-9-Hydroxy-1H-Benzo[f]chromene-2-Carbonitrile], the IC50 in assay [1] (Homo sapiens, SK-OV-3, 24 h) was found to be 1.5 ± 0.1 µM; in the assay on human fetal lung (HFL-1) (Homo sapiens, HFL1, 24 h), 20.1 ± 0.4 µM; in assay [2], 1.8 ± 0.1 µM. Moreover, the “cell cycle arrest phase” value in the assay with MCF-7/ADR cells is reported as “G1 phase”.
`N#CC1=C(N)Oc2ccc3ccc(O)cc3c2C1c1cccc(Cl)c1Cl` (centres unmarked) [4c, 3-Amino-1-(2,3-Dichlorophenyl)-9-Hydroxy-1H-Benzo[f]chromene-2-Carbonitrile]: the IC50 in assay [1] was 4 ± 0.6 µM; in the assay with human fetal lung (HFL-1) (Homo sapiens, HFL1, 24 h) it was 22.1 ± 0.2 µM; in assay [2] it was 1.7 ± 0.1 µM. Besides, the “cell cycle arrest phase” value in the assay on MCF-7/ADR cells was “S phase”.
Take `N#CC1=C(N)Oc2ccc3ccc(O)cc3c2C1c1cc(Br)cc(Br)c1` (centres unmarked) [4i, 3-Amino-1-(3,5-Dibromophenyl)-9-Hydroxy-1H-Benzo[f]chromene-2-Carbonitrile]: the IC50 in assay [1] was 1.1 ± 0.1 µM; in assay [1] (Homo sapiens, SK-OV-3, 24 h), 1.2 µM; in the assay with human fetal lung (HFL-1), 38.1 ± 0.4 µM; with human fetal lung (HFL-1) (Homo sapiens, HFL1, 24 h), 19.1 to 30.1 µM; in assay [2] it was 3.4 ± 0.6 µM. Also, the “cell cycle arrest phase” value with MCF-7/ADR cells is recorded as “G1/S phases”.
For the molecule `N#CC1=C(N)Oc2ccc3ccc(O)cc3c2C1c1ccc(F)cc1F` (centres unmarked) [4a, 3-Amino-1-(2,4-Difluorophenyl)-9-Hydroxy-1H-Benzo[f]chromene-2-Carbonitrile], the 50% inhibitory concentration (IC50) in assay [1] (Homo sapiens, SK-OV-3, 24 h) worked out at 1.4 ± 0.2 µM; in the assay on human fetal lung (HFL-1) (Homo sapiens, HFL1, 24 h), 26.5 ± 0.3 µM; in assay [2], 2.8 ± 0.3 µM. The “cell cycle arrest phase” value with MCF-7/ADR cells was “S phase”.
In the case of `N#CC1=C(N)Oc2ccc3ccc(O)cc3c2C1c1cc(Cl)ccc1Cl` (centres unmarked) [4e, 3-Amino-1-(2,5-Dichlorophenyl)-9-Hydroxy-1H-Benzo[f]chromene-2-Carbonitrile], the concentration for half-maximal inhibition (IC50) in assay [1] (Homo sapiens, SK-OV-3, 24 h) was 1.1 ± 0.4 µM; in the assay on human fetal lung (HFL-1) (Homo sapiens, HFL1, 24 h) it was 24.1 ± 0.3 µM; in assay [2], 2.7 ± 0.6 µM. Moreover, the “cell cycle arrest phase” value with MCF-7/ADR cells is listed as “G1 phase”.
